This passage reports pest or weed control results from patent publication US20230017045A1, “PYRIDINE AND PYRIMIDINE CARBOXYLATE HERBICIDES AND METHODS OF USE THEREOF” (Dow AgroSciences LLC, priority 2017, published 2023).

Where two headings read alike, the source gives them in different places.

The experiment concerns test plant species. The experiment can be described thus: Post-emergent herbicidal activity test (greenhouse, foliar spray, visual growth reduction). In kind it is in vivo. As to conditions: post-emergence, 336 h, 140 g ai/ha. An outline of the steps:
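Scoring used a 0 to 100 percent visual scale of growth reduction against solvent-treated controls, read 14 d after spraying. Applications went onto plants at first or second true leaf stage, 187 L/ha, with crop oil concentrate and X-77 surfactant in the carrier. Post-treatment watering was by subirrigation to avoid wash-off.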

Where [1] appears, read: ECHCG: barnyardgrass (Echinochloa crus-galli), 14 days after application, read-out: Visual Growth Reduction (%) 14 Days After Application, ECHCG.
[2] abbreviates: IPOHE: ivy-leaf morning glory (Ipomoea hederacea), 14 days after application, read-out: Visual Growth Reduction (%) 14 Days After Application, IPOHE.
Setting [3] is: KCHSC: kochia (Bassia scoparia), 14 days after application, read-out: Visual Growth Reduction (%) 14 Days After Application, KCHSC.
Where [4] appears, read: ORYSA: rice (Oryza sativa), 14 days after application, read-out: Visual Growth Reduction (%) 14 Days After Application, ORYSA.
The mark [5] stands for this setting: SETFA: giant foxtail (Setaria faberi), 14 days after application, read-out: Visual Growth Reduction (%) 14 Days After Application, SETFA.
Setting [6] is: SORVU: grain sorghum (Sorghum vulgare), 14 days after application, read-out: Visual Growth Reduction (%) 14 Days After Application, SORVU.
Where [7] appears, read: STEME: common chickweed (Stellaria media), 14 days after application, read-out: Visual Growth Reduction (%) 14 Days After Application, STEME.
Setting [8] is: TRZAS: wheat, spring (Triticum aestivum), 14 days after application, read-out: Visual Growth Reduction (%) 14 Days After Application, TRZAS.
The mark [9] stands for this setting: blackgrass (Alopecurus myosuroides), 14 Days After Application, read-out: Visual Growth Reduction (%) ALOMY.
[10] abbreviates: canada thistle (Cirsium arvense), 14 Days After Application, read-out: Visual Growth Reduction (%) CIRAR.
The mark [11] stands for this setting: crabgrass (Digitaria sanguinalis), 14 Days After Application, read-out: Visual Growth Reduction (%) DIGSA.
The mark [12] stands for this setting: lambsquarters (Chenopodium album), 14 Days After Application, read-out: Visual Growth Reduction (%) CHEAL.
[13] abbreviates: redroot pigweed (Amaranthus retroflexus), 14 Days After Application, read-out: Visual Growth Reduction (%) AMARE.
Where [14] appears, read: wild oat (Avena fatua), 14 Days After Application, read-out: Visual Growth Reduction (%) AVEFA.
The mark [15] stands for this setting: yellow nutsedge (Cyperus esculentus), 14 Days After Application, read-out: Visual Growth Reduction (%) CYPES.

Consider `COC(=O)c1nc(-c2ccc(C(F)(F)F)cc2OC)ncc1Cl` [F313, methyl 5-chloro-2-(2-methoxy-4-(trifluoromethyl)phenyl)pyrimidine-4-carboxylate], for which the pest or weed control at 140 g/ha lay within 60 to 74% under setting [1]; 95 to 100% under setting [2]; 0 to 29% under setting [3]; 0 to 29% under setting [4]; 60 to 74% under setting [5]; 85 to 94% under setting [6]. In addition, the pest or weed control at 140 g/ha is 0 to 29% under setting [7]; 0 to 29% under setting [8]; 0 to 29% under setting [9]; 45 to 59% under setting [10]; 75 to 84% under setting [11]; 30 to 44% under setting [12]. For the same molecule, the pest or weed control at 140 g/ha reads like this: under setting [13], 45 to 59%; under setting [14], 0 to 29%; under setting [15], 0 to 29%.
Consider `O=C(O)c1nc(-c2ccc(C(F)(F)F)c(Cl)c2)ccc1Cl` [F314, 3-Chloro-6-(3-chloro-4-(trifluoromethyl)phenyl) picolinic acid], for which the pest or weed control at 140 g/ha by setting is: under setting [1], 0 to 29%; under setting [2], 95 to 100%; under setting [3], 0 to 29%; under setting [4], 0 to 29%; under setting [5], 0 to 29%; under setting [6], 75 to 84%. The pest or weed control at 140 g/ha by setting is: under setting [7], 0 to 29%; under setting [8], 0 to 29%; under setting [9], 0 to 29%; under setting [10], 45 to 59%; under setting [11], 75 to 84%; under setting [12], 30 to 44%. The pest or weed control at 140 g/ha is 0 to 29% under setting [13], 0 to 29% under setting [14] and 0 to 29% under setting [15].
On to `O=C(O)c1nc(-c2ccc(C(F)(F)F)c(F)c2)ccc1Cl` [F315, 3-Chloro-6-(3-fluoro-4-(trifluoromethyl)phenyl) picolinic acid], for which the pest or weed control at 140 g/ha is, setting by setting: under setting [1], 0 to 29%; under setting [2], 95 to 100%; under setting [3], 0 to 29%; under setting [4], 0 to 29%; under setting [5], 60 to 74%; under setting [6], 85 to 94%. Further, the pest or weed control at 140 g/ha reads like this: under setting [7], 0 to 29%; under setting [8], 60 to 74%; under setting [9], 0 to 29%; under setting [10], 60 to 74%; under setting [11], 75 to 84%; under setting [12], 60 to 74%. Also, the pest or weed control at 140 g/ha is, setting by setting: under setting [13], 60 to 74%; under setting [14], 0 to 29%; under setting [15], 60 to 74%.
On to `Cc1cc(-c2ccc(Cl)c(C(=O)O)n2)ccc1C(F)(F)F` [F316, 3-Chloro-6-(3-methyl-4-(trifluoromethyl)phenyl) picolinic acid], for which the pest or weed control at 140 g/ha under setting [1] fell in the range of 0 to 29%; the pest or weed control at 140 g/ha under setting [2] lay within 60 to 74%; the pest or weed control at 140 g/ha under setting [3] was in the range of 0 to 29%; the pest or weed control at 140 g/ha under setting [4] was 0 to 29%; the pest or weed control at 140 g/ha under setting [5] fell in the range of 0 to 29%; the pest or weed control at 140 g/ha under setting [6] is 0 to 29%. In addition, the pest or weed control at 140 g/ha is 0 to 29% under setting [7]; 0 to 29% under setting [8]; 0 to 29% under setting [9]; 30 to 44% under setting [10]; 0 to 29% under setting [11]; 30 to 44% under setting [12]. Besides, the pest or weed control at 140 g/ha under setting [13] lay within 0 to 29%, the pest or weed control at 140 g/ha under setting [14] was 0 to 29% and the pest or weed control at 140 g/ha under setting [15] lay within 0 to 29%.
For `COc1cc(-c2ccc(Cl)c(C(=O)O)n2)ccc1C(F)(F)F` [F317, 3-Chloro-6-(3-methoxy-4-(trifluoromethyl)phenyl)picolinic acid], the pest or weed control at 140 g/ha under setting [1] lay in the range of 0 to 29%; the pest or weed control at 140 g/ha under setting [2] fell in the range of 60 to 74%; the pest or weed control at 140 g/ha under setting [3] fell in the range of 0 to 29%; the pest or weed control at 140 g/ha under setting [4] is 0 to 29%; the pest or weed control at 140 g/ha under setting [5] was 0 to 29%; the pest or weed control at 140 g/ha under setting [6] lay in the range of 0 to 29%. Further, the pest or weed control at 140 g/ha reads like this: under setting [7], 0 to 29%; under setting [8], 0 to 29%; under setting [9], 0 to 29%; under setting [10], 0 to 29%; under setting [11], 0 to 29%; under setting [12], 0 to 29%. Also, the pest or weed control at 140 g/ha runs as follows: under setting [13], 0 to 29%; under setting [14], 0 to 29%; under setting [15], 0 to 29%.
Consider `COC(=O)c1nc(-c2cc3nonc3cc2F)c(F)cc1Cl` [F318, Methyl 3-chloro-5-fluoro-6-(6-fluorobenzo[c][1,2,5]oxadiazol-5-yl)picolinate], for which the pest or weed control at 140 g/ha runs as follows: under setting [1], 85 to 94%; under setting [2], 95 to 100%; under setting [3], 0 to 29%; under setting [4], 0 to 29%; under setting [5], 75 to 84%; under setting [6], 85 to 94%. Also, the pest or weed control at 140 g/ha is, setting by setting: under setting [7], 0 to 29%; under setting [8], 0 to 29%; under setting [9], 0 to 29%; under setting [10], 0 to 29%; under setting [11], 85 to 94%; under setting [12], 60 to 74%. Also, the pest or weed control at 140 g/ha runs as follows: under setting [13], 60 to 74%; under setting [14], 0 to 29%; under setting [15], 0 to 29%.
As for `COC(=O)c1nc(-c2ccc(C(F)F)cc2)ncc1Cl` [F319, Methyl 5-chloro-2-(4-(difluoromethyl)phenyl)pyrimidine-4-carboxylate], the pest or weed control at 140 g/ha under setting [1] fell in the range of 0 to 29%; the pest or weed control at 140 g/ha under setting [2] fell in the range of 30 to 44%; the pest or weed control at 140 g/ha under setting [3] lay in the range of 0 to 29%; the pest or weed control at 140 g/ha under setting [4] was in the range of 0 to 29%; the pest or weed control at 140 g/ha under setting [5] fell in the range of 0 to 29%; the pest or weed control at 140 g/ha under setting [6] lay in the range of 0 to 29%. The pest or weed control at 140 g/ha under setting [7] fell in the range of 0 to 29%; the pest or weed control at 140 g/ha under setting [8] lay in the range of 0 to 29%; the pest or weed control at 140 g/ha under setting [9] fell in the range of 0 to 29%; the pest or weed control at 140 g/ha under setting [10] lay within 0 to 29%; the pest or weed control at 140 g/ha under setting [11] is 0 to 29%; the pest or weed control at 140 g/ha under setting [12] is 30 to 44%. In addition, the pest or weed control at 140 g/ha reads like this: under setting [13], 0 to 29%; under setting [14], 0 to 29%; under setting [15], 0 to 29%.
For the molecule `COC(=O)c1nc(-c2ccc3cc[nH]c3c2)c(F)cc1Cl` [F320, Methyl 3-chloro-5-fluoro-6-(1H-indol-6-yl)picolinate], the pest or weed control at 140 g/ha was 0 to 29% under setting [1]; 60 to 74% under setting [2]; 0 to 29% under setting [3]; 0 to 29% under setting [4]; 0 to 29% under setting [5]; 0 to 29% under setting [6]. Further, the pest or weed control at 140 g/ha under setting [7] lay in the range of 0 to 29%; the pest or weed control at 140 g/ha under setting [8] was in the range of 0 to 29%; the pest or weed control at 140 g/ha under setting [9] was 0 to 29%; the pest or weed control at 140 g/ha under setting [10] was 30 to 44%; the pest or weed control at 140 g/ha under setting [11] fell in the range of 0 to 29%; the pest or weed control at 140 g/ha under setting [12] was in the range of 60 to 74%. The pest or weed control at 140 g/ha under setting [13] was in the range of 0 to 29%, the pest or weed control at 140 g/ha under setting [14] was in the range of 0 to 29% and the pest or weed control at 140 g/ha under setting [15] is 0 to 29%.
In the case of `COC(=O)c1nc(-c2cc(C#N)c(C(F)(F)F)cc2Cl)c(F)cc1Cl` [F321, Methyl 3-chloro-6-(2-chloro-5-cyano-4-(trifluoromethyl)phenyl)-5-fluoropicolinate], the pest or weed control at 140 g/ha under setting [1] lay within 30 to 44%; the pest or weed control at 140 g/ha under setting [2] is 85 to 94%; the pest or weed control at 140 g/ha under setting [3] lay within 0 to 29%; the pest or weed control at 140 g/ha under setting [4] fell in the range of 0 to 29%; the pest or weed control at 140 g/ha under setting [5] was 75 to 84%; the pest or weed control at 140 g/ha under setting [6] was in the range of 95 to 100%. For the same molecule, the pest or weed control at 140 g/ha reads like this: under setting [7], 0 to 29%; under setting [8], 30 to 44%; under setting [9], 0 to 29%; under setting [10], 75 to 84%; under setting [11], 85 to 94%; under setting [12], 95 to 100%. Moreover, the pest or weed control at 140 g/ha was 30 to 44% under setting [13], 75 to 84% under setting [14] and 0 to 29% under setting [15].
